Reference: patent publication US8410097B2 (priority 2005, dated 2013)
Read-outs that look alike come from different tables or passages of the source.

Experiments:
CB2 cannabinoid receptor = CB2 cannabinoid receptor (Mus musculus, UniProt P47936); assay: biochemical; assay type: binding; details: mouse spleen membranes
Protocol: Some of the inventive analogs were tested for CB2 receptor binding affinity and for CB1 receptor affinity (to determine selectivity). […] The lower the Ki value the higher the binding affinity.
(§1) The treated membranes were subsequently used in the binding assay described below. Approximately 30 μg of membranes were incubated in silanized 96-well microtiter plate with TME containing 0.1% essentially fatty acid-free bovine serum albumin (BSA), 0.8 nM [^3H] […] Radioactivity was detected using MicroScint 20 scintillation cocktail added directly to the dried filterplates, and the filterplates were counted using a Packard Instruments Top-Count. […] Data collected from three independent experiments performed with duplicate determinations was normalized between 100% and 0% specific binding for [^3H] […] The normalized data was analyzed using a 4-parameter nonlinear logistic equation to yield IC50 values.
Silanized centrifuge tubes were used throughout to minimize receptor loss due to adsorption. The CB2 binding assay was conducted in the same manner as for the CB1 binding assay. The binding affinities (Ki) were also expressed in nanomoles (nM).

CB1 cannabinoid receptor = target: T1, CB1 cannabinoid receptor (Rattus norvegicus, UniProt P20272); assay: biochemical; assay type: binding; details: for Ki: rat forebrain membranes; for Selectivity CB1: CB1 over CB2 binding selectivity (ratio of Ki)
T1 construct: membranes were prepared from rat forebrain membranes; from tissue; host or cells: rat forebrain membranes
Protocol: Some of the inventive analogs were tested for CB2 receptor binding affinity and for CB1 receptor affinity (to determine selectivity). […] The lower the Ki value the higher the binding affinity. […]
Membranes, previously frozen at −80° C., were thawed on ice. To the stirred suspension was added three volumes of TME (25 mM Tris-HCl buffer, 5 mM MgCl2 and 1 mM EDTA) at a pH 7.4. The suspension was incubated at 4° C. for 30 min. At the end of the incubation, the membranes were pelleted and washed three times with TME.
as §1

[1] = Table 10, read-out: Receptor Affinities Ki (nM) CB2
[2] = Receptor Affinities Ki (nM) CB1, Table 10
[3] = Table 6, [3H] CP-55,940, read-out: CB2 Ki
[4] = CB1 Ki, Table 6, 0.8 nM [3H] CP-55,940
[5] = Table 6, 0.8 nM [3H] CP-55,940, read-out: CB1 Ki
[6] = Table 8, read-out: Receptor Affinities Ki (nM) CB2
[7] = Receptor Affinities Ki (nM) CB1, Table 8
[8] = Table 9, read-out: Receptor Affinities Ki (nM) CB2
[9] = Receptor Affinities Ki (nM) CB1, Table 9

CB2 cannabinoid receptor, sequence (P47936 whole entry): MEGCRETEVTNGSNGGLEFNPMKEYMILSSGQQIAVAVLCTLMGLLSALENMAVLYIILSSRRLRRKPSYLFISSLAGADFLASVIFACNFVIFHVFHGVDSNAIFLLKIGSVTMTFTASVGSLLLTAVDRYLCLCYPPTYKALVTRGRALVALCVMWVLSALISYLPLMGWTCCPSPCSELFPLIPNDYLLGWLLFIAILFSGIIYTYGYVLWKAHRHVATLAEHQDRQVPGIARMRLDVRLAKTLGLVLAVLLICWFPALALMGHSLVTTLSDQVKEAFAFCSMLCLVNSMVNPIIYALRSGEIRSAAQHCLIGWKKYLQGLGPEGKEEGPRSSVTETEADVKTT
T1 sequence (P20272 whole entry): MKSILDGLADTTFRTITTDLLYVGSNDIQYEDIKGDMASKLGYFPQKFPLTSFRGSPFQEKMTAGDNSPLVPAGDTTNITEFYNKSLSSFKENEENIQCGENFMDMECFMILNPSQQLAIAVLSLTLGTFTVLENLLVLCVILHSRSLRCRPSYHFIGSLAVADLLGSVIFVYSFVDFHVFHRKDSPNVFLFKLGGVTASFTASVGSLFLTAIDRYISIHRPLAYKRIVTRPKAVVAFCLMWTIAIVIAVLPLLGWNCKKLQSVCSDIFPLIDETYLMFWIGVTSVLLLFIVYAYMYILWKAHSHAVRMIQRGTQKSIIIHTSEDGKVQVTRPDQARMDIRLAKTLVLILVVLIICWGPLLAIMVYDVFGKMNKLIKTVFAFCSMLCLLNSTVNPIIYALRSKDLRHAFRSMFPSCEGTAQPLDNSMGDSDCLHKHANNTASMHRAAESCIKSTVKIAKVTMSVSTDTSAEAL

Cc1c(C(=O)NN2CCCCC2)nn(-c2ccc(Cl)cc2Cl)c1-c1ccc(C#CC2CC2)cc1 [Compound 5-6]
Ki (CB2 cannabinoid receptor; [1]): 20 nM
Ki (CB1 cannabinoid receptor; [2]): 12 nM
Selectivity CB1 (CB1 cannabinoid receptor; Table 10): 1.5

Cc1c(C(=O)NN2CCCCC2)nc(-c2ccc(Cl)cc2Cl)n1-c1ccc(-c2nnn(C)n2)cc1 [Compound 1-18]
Ki (CB2 cannabinoid receptor; [3]): 5080 nM
Ki (CB1 cannabinoid receptor; [4]): 6.5 nM

Cc1cc(Br)ccc1-n1c(-c2ccc(Cl)cc2Cl)nc(C(=O)NN2CCCCC2)c1CO [Compound 1-3]
Ki (CB2 cannabinoid receptor; [3]): 803 nM
Ki (CB1 cannabinoid receptor; [4]): 54.7 nM

Cc1c(NC(=O)NC2CCCCC2)nc(-c2ccc(Cl)cc2Cl)n1-c1ccc(I)cc1 [Compound 1-36]
Ki (CB2 cannabinoid receptor; [3]): 7240 nM
Ki (CB1 cannabinoid receptor; [4]): 1.2 nM

Cc1c(C(=O)NN2CCCCC2)nn(-c2ccc(Cl)cc2Cl)c1-c1ccc(C#CCO)cc1 [Compound 2-1, 1-(2,4-Dichloro-phenyl)-5-[4-(3-hydroxy-prop-1-ynyl)-phenyl]-4-methyl-1H-pyrazole-3-carboxylic acid piperidin-1-ylamide]
Ki (CB2 cannabinoid receptor; Table 7, [3H] CP-55,940, read-out: CB2 Ki): 1490 nM
Ki (CB1 cannabinoid receptor; CB1 Ki, Table 7, 0.8 nM [3H] CP-55,940): 33.1 nM

O=C(NN1CCCCC1)c1nc(-c2ccc(Cl)cc2Cl)n(-c2ccc(-c3nnn[nH]3)cc2)c1CO [Compound 1-19]
Ki (CB2 cannabinoid receptor; [3]): 22300 nM
Ki (CB1 cannabinoid receptor; [5]): 5760 nM

Cc1c(C(=O)N(C)C2CCCCC2)nc(-c2ccc(Cl)cc2Cl)n1-c1ccc(C#CCN=[N+]=[N-])cc1 [Compound 3-11]
Ki (CB2 cannabinoid receptor; [6]): 82 nM
Ki (CB1 cannabinoid receptor; [7]): 1 nM
Selectivity CB1 (CB1 cannabinoid receptor; Table 8): 82

CN(C(=O)c1nc(-c2ccc(Cl)cc2Cl)n(-c2ccc(I)cc2)c1CO)C1CCCCC1 [Compound 1-11]
Ki (CB2 cannabinoid receptor; [3]): 1150 nM
Ki (CB1 cannabinoid receptor; [4]): 6.4 nM

N#Cc1ccc(-n2c(-c3ccc(Cl)cc3Cl)nc(C(=O)NN3CCCCC3)c2CO)cc1 [Compound 1-9]
Ki (CB2 cannabinoid receptor; [3]): 5460 nM
Ki (CB1 cannabinoid receptor; [4]): 51 nM

Cc1c(C(=O)NN2CCCCC2)nc(-c2ccc(Cl)cc2Cl)n1-c1ccc(-c2nccs2)cc1 [Compound 1-28]
Ki (CB2 cannabinoid receptor; [3]): 656 nM
Ki (CB1 cannabinoid receptor; [4]): 7.7 nM

Cc1c(C(=O)NN2CCCCC2)nn(-c2ccc(Cl)cc2Cl)c1-c1ccc(C#Cc2ccccn2)cc1 [Compound 5-9]
Ki (CB2 cannabinoid receptor; [1]): 59 nM
Ki (CB1 cannabinoid receptor; [2]): 50 nM
Selectivity CB1 (CB1 cannabinoid receptor; Table 10): 1

Cc1c(NC(=O)N(C)C2CCCCC2)nc(-c2ccc(Cl)cc2Cl)n1-c1ccc(Br)cc1 [Compound 1-37]
Ki (CB2 cannabinoid receptor; [3]): 1420 nM
Ki (CB1 cannabinoid receptor; [4]): 14.2 nM

Cc1c(C(=O)NN2CCCCC2)nn(-c2ccc(Cl)cc2Cl)c1-c1ccc(CCCCN=[N+]=[N-])cc1 [Compound 4-5]
Ki (CB2 cannabinoid receptor; [8]): 177 nM
Ki (CB1 cannabinoid receptor; [9]): 3 nM
Selectivity CB1 (CB1 cannabinoid receptor; Table 9): 59

Cc1c(C(=O)N(C)C2CCCCC2)nc(-c2ccc(Cl)cc2Cl)n1-c1ccc(CCCO)cc1 [Compound 4-7]
Ki (CB2 cannabinoid receptor; [8]): 290 nM
Ki (CB1 cannabinoid receptor; [9]): 100 nM
Selectivity CB1 (CB1 cannabinoid receptor; Table 9): 3

CN(C(=O)c1nc(-c2ccc(Cl)cc2Cl)n(-c2ccc(-c3nnn(C)n3)cc2)c1CO)C1CCCCC1 [Compound 1-27]
Ki (CB2 cannabinoid receptor; [3]): 620 nM
Ki (CB1 cannabinoid receptor; [4]): 19 nM

Cn1nnc(-c2ccc(-n3c(-c4ccc(Cl)cc4Cl)nc(C(=O)NN4CCCCC4)c3CO)cc2)n1 [Compound 1-21]
Ki (CB2 cannabinoid receptor; [3]): 539 nM
Ki (CB1 cannabinoid receptor; [4]): 10.5 nM

Cc1c(C(=O)NN2CCCCC2)nn(-c2ccc(Cl)cc2Cl)c1-c1ccc(C#Cc2ccncc2)cc1 [Compound 5-12]
Ki (CB2 cannabinoid receptor; [1]): 421 nM
Ki (CB1 cannabinoid receptor; [2]): 8 nM
Selectivity CB1 (CB1 cannabinoid receptor; Table 10): 52

Cc1c(C(=O)NN2CCCCC2)nn(-c2ccc(Cl)cc2Cl)c1-c1ccc(C#CC(C)(C)C)cc1 [Compound 5-11]
Ki (CB2 cannabinoid receptor; [1]): 25 nM
Ki (CB1 cannabinoid receptor; [2]): 25 nM
Selectivity CB1 (CB1 cannabinoid receptor; Table 10): 1

O=C(NN1CCCCC1)c1nn(-c2ccc(Cl)cc2Cl)c(-c2ccc(CCCCO)cc2)c1CO [Compound 4-3]
Ki (CB2 cannabinoid receptor; [8]): 7540 nM
Ki (CB1 cannabinoid receptor; [9]): 31 nM
Selectivity CB1 (CB1 cannabinoid receptor; Table 9): 243

O=C(NN1CCCCC1)c1nc(-c2ccc(Cl)cc2Cl)n(-c2ccc(I)cc2)c1CO [Compound 1-7]
Ki (CB2 cannabinoid receptor; [3]): 1650 nM
Ki (CB1 cannabinoid receptor; [4]): 1.5 nM

O=C(NN1CCCCC1)c1nc(-c2ccc(Cl)cc2Cl)n(-c2ccc(-c3nccs3)cc2)c1CO [Compound 1-30]
Ki (CB2 cannabinoid receptor; [3]): 1510 nM
Ki (CB1 cannabinoid receptor; [4]): 23.9 nM

Cc1c(NC(=O)NC2CCCCC2)nc(-c2ccc(Cl)cc2Cl)n1-c1ccc(Br)cc1 [Compound 1-35]
Ki (CB2 cannabinoid receptor; CB2 Ki, Table 6, [3H] CP-55,940): 20500 nM
Ki (CB1 cannabinoid receptor; [4]): 6.9 nM

Cc1c(C(=O)NN2CCCCC2)nn(-c2ccc(Cl)cc2Cl)c1-c1ccc(C#CCN(C)C)cc1 [Compound 5-1]
Ki (CB2 cannabinoid receptor; [1]): 76 nM
Ki (CB1 cannabinoid receptor; [2]): 51 nM
Selectivity CB1 (CB1 cannabinoid receptor; Table 10): 1.5

Cc1c(C(=O)NN2CCCCC2)nc(-c2ccc(Cl)cc2Cl)n1-c1ccc(-c2cccnc2)cc1 [Compound 1-14]
Ki (CB2 cannabinoid receptor; [3]): 3330 nM
Ki (CB1 cannabinoid receptor; [4]): 39.8 nM

Cc1c(C(=O)NN2CCCCC2)nn(-c2ccc(Cl)cc2Cl)c1-c1ccc(CCCCO)cc1 [Compound 4-2]
Ki (CB2 cannabinoid receptor; [8]): 43 nM
Ki (CB1 cannabinoid receptor; [9]): 2 nM
Selectivity CB1 (CB1 cannabinoid receptor; Table 9): 21

N#CCCC#Cc1ccc(-n2c(-c3ccc(Cl)cc3Cl)nc(C(=O)NN3CCCCC3)c2CO)cc1 [Compound 3-10]
Ki (CB2 cannabinoid receptor; [6]): 279 nM
Ki (CB1 cannabinoid receptor; [7]): 2 nM
Selectivity CB1 (CB1 cannabinoid receptor; Table 8): 140

Cc1c(C(=O)NN2CCCCC2)nn(-c2ccc(Cl)cc2Cl)c1-c1ccc(C#CC2(O)CCCC2)cc1 [Compound 5-8]
Ki (CB2 cannabinoid receptor; [1]): 13 nM
Ki (CB1 cannabinoid receptor; [2]): 9 nM
Selectivity CB1 (CB1 cannabinoid receptor; Table 10): 1.5

Cc1c(C(=O)NN2CCCCC2)nc(-c2ccc(Cl)cc2Cl)n1-c1ccc(-c2nnnn2C)cc1 [Compound 1-17]
Ki (CB2 cannabinoid receptor; [3]): 24500 nM
Ki (CB1 cannabinoid receptor; [5]): 2290 nM

Cc1c(C(=O)NN2CCCCC2)nn(-c2ccc(Cl)cc2Cl)c1-c1ccc(C#CCCCO)cc1 [Compound 3-5]
Ki (CB2 cannabinoid receptor; [6]): 144 nM
Ki (CB1 cannabinoid receptor; [7]): 2 nM
Selectivity CB1 (CB1 cannabinoid receptor; Table 8): 72

Cc1c(C(=O)NN2CCCCC2)nn(-c2ccc(Cl)cc2Cl)c1-c1ccc(C#CCCCN)cc1 [Compound 5-14]
Ki (CB2 cannabinoid receptor; [1]): 947 nM
Ki (CB1 cannabinoid receptor; [2]): 46 nM
Selectivity CB1 (CB1 cannabinoid receptor; Table 10): 20

Cc1c(C(=O)NN2CCCCC2)nc(-c2ccc(Cl)cc2Cl)n1-c1ccc(C#N)cc1 [Compound 1-8]
Ki (CB2 cannabinoid receptor; [3]): 7220 nM
Ki (CB1 cannabinoid receptor; [4]): 57 nM
